According to patent US20260373434A1, “QUICK DISSOLVABLE MICRONEEDLE WITH ENHANCED MECHANICAL STRENGTH, ITS COMPOSITIONS AND METHOD FOR FABRICATION THEREOF” (TRANSFORM SCITECH PRIVATE LIMITED, priority 2023, published 2026):
Counter-ions that a name gives are not always drawn.

Tests used:
[1] = in vitro drug release study (Franz diffusion cell, pH 7.4); type: physicochemical; conditions: pH 7.4, 37 °C
Method: • Equipment: Franz diffusion cell shown in FIG. 38. • Dissolution medium: Physiological buffer solution pH (7.4) • Temperature: 37±0.2 °C. • Rotational speed: 100 rpm • Mode of sample analysis for Salbutamol sulphate—HPLC-UV analysis using RP C18 250X 4.6 mm; 5-micron, 100 A column and 87 parts of ammonium acetate buffer (pH 3.0, 20 mM) with sodium hexane sulfonate in combination with 13 parts of acetonitrile as a mobile phase. • Mode of sample analysis for Lorazepam—UV analysis, absorbance 280 nm • Mode of sample analysis for Cetirizine dihydrochloride—UV analysis, absorbance 276 nm • Mode of sample analysis for Ondansetran—UV analysis, absorbance 249 nm
Drug release at early time points was used to check the quick release characteristics. Salbutamol sulphate, Lorazepam and Cetirizine dihydrochloride which are soluble drugs released more than 80% achieving the quick release characteristics. Ondansetran which is a poorly soluble drug released about 30% in 20 minutes. Probably owing to its slow rate of dissolution. All drugs were analysed using appropriate UV/HPLC method as described in EXAMPLE 3. (FIGS. 39, 40, 41, 42, 43, 44)

[2] = drug classification and dissolution in the fabrication solvent; type: physicochemical; conditions: fabrication stage
Method: Salbutamol sulphate (Dose per patch 2.5 mg) and Lorazepam (Dose per patch 4 mg) are BCS Class I drugs, Cetirizine dihydrochloride (Dose per patch 5 mg) is BCS class III and Ondansetron Hydrochloride (Dose per patch 16 mg) is BCS Class II. The various drugs were studied for suitability of incorporation into the Dissolving microneedle formulation.

In the case of `Cc1nccn1CC1CCc2c(c3ccccc3n2C)C1=O` (centres unmarked) [Ondansetron Hydrochloride], the Ondansetran released ([1]; batch MN01/02/84, in 20 minutes, UV 249 nm) is reported as “about 30%” and the “dissolution of drug in the aqueous solvent during fabrication” value [2] is reported as “remained dispersed”.

With `CC(C)(C)NCC(O)c1ccc(O)c(CO)c1` (centres unmarked) [Salbutamol sulphate] the Salbutamol sulphate released ([1]; batches MN01/02/64, MN01/02/77/A, MN01/02/77/B, early time points, HPLC-UV) was “more than 80%”.

In the case of `O=C(O)COCCN1CCN(C(c2ccccc2)c2ccc(Cl)cc2)CC1` (centres unmarked) [Cetirizine dihydrochloride], the Cetirizine dihydrochloride released ([1]; batch MN01/02/83A, early time points, UV 276 nm) is reported as “more than 80%”.

In the case of `O=C1Nc2ccc(Cl)cc2C(c2ccccc2Cl)=NC1O` (centres unmarked) [Lorazepam], the Lorazepam released ([1]; batch MN01/02/82, early time points, UV 280 nm) is reported as “more than 80%”.
